Where two headings read alike, the source gives them in different places. Values belong to the compound of their own block, whether it stands above or below them.
Experiments:
[1] = per 1 mg; cited from earlier work
[2] = cited from earlier work
[3] = Dietary vitamin E regimens and final longissimus muscle α-tocopherol (AT) concentration (Arnold); assay type: in vivo, cattle
Description: For example, Arnold compared several dietary vitamin E regimens and their resultant final tissue concentration of α-tocopherol (AT). Comparing the results to baseline control and assuming AT accretion in longissimus muscle is linear over time, approximate rates of AT accretion are calculated for various E regimens. Because AT rise is likely logarithmic (See e.g., Arnold et al., J. Anim. Sci. 71:105-118. (1993)), these calculated rates are conservative estimates, especially for feeding periods exceeding 150 days.

[4] = AT accretion in RCDM neck muscle at 1,000 IU vitamin E/hd/day (McClure); assay type: in vivo, Bos indicus crosses; settings: 1000 IU/hd/day (McClure), 25-125 days fed
Description: McClure (FIG. 1) tested the rate of accretion in Bos indicus crosses when fed 1,000 IU of Vitamin E/hd/day. Groups of cattle were slaughtered at 25-day intervals, and neck muscles obtained for tissue AT analysis. Because the controls were already receiving 200 IU E/day, initial AT concentrations were above 3.5. However, RCDM (rectus capitis dorsalis major) AT concentration rose in a logarithmic fashion, eventually reaching a plateau of 9.3 μg/gm. (McClure et al., Determination of Appropriate Vitamin E Supplementation Levels and Administration Times to Ensure Adequate Muscle Tissue Alpha-Tocopherol Concentrations in Cattle Destined for the Nolan Ryan Tender-Aged Beef (NRTAAB) Program, Animal Sciences Report (2002)).

[5] = cited from earlier work; remark: listed apart in the source
[6] = Calculated average AT accretion rates in longissimus muscle (Arnold and McClure combined); assay type: in vivo, cattle
Text: Combining the results from Arnold and McClure, and bearing in mind that various muscles accrete AT at different rates (sirloin>inside round>RCDM>strip loin; Roeber et al., Effects of Three Levels of α-Tocopherol Acetate Supplementation to Feedlot Cattle on Performance of Beef Cuts (2001)), average accretion rates for AT in longissimus muscle can be calculated: […]

[7] = 360 IU/hd/day, 211-252 days fed
[8] = 1280 IU/hd/day, 211-252 days fed
[9] = 2080 IU/hd/day, 196-266 days fed
[10] = 3520 IU/hd/day, 196-266 days fed

Compound: CC(=O)Oc1c(C)c(C)c2c(c1C)CC[C@@](C)(CCC[C@H](C)CCC[C@H](C)CCCC(C)C)O2 [RRR-α-tocopherol acetate]
specific activity [1]: 1.36 IU per milligram

Compound: Cc1c(C)c2c(c(C)c1O)CCC(C)(CCCC(C)CCCC(C)CCCC(C)C)O2 (racemic) [all-rac-α-tocopherol]
specific activity [1]: 1.10 IU per milligram

Compound: CC(=O)Oc1c(C)c(C)c2c(c1C)CCC(C)(CCCC(C)CCCC(C)CCCC(C)C)O2 (racemic) [all-rac-α-tocopherol acetate]
specific activity [1]: 1.00 IU per milligram

Compound: Cc1c(C)c2c(c(C)c1O)CC[C@@](C)(CCC[C@H](C)CCC[C@H](C)CCCC(C)C)O2 [RRR-α-tocopherol]
specific activity [1]: 1.49 IU per milligram

Calculated Rise in AT per 50 days ([3]; 300 IU/hd/day, 231-309 days fed, vs control baseline, linear accretion assumed): 0.52 μg/gm/50 days
Calculated Rise in AT per 50 days [3, 7]: 0.64 μg/gm/50 days
Calculated Rise in AT per 50 days ([3]; 1140 IU/hd/day, 67 days fed): 3.58 μg/gm/50 days
Calculated Rise in AT per 50 days ([3]; 1200 IU/hd/day, 38 days fed): 2.76 μg/gm/50 days
Calculated Rise in AT per 50 days [3, 8]: 1.28 μg/gm/50 days
Calculated Rise in AT per 50 days [3, 9]: 1.38 μg/gm/50 days
Calculated Rise in AT per 50 days [3, 10]: 1.58 μg/gm/50 days
Calculated Rise in AT per 50 days [4]: 2.6 μg/gm/50 days
AT Accretion ([6]; Vitamin E dose 500 IU/hd/day): 0.75-1.0 μg AT/gm wet muscle/50 days
AT Accretion ([6]; Vitamin E dose 1000+ IU/hd/day): 1.5-3.6 μg AT/gm wet muscle/50 days
AT Accretion ([6]; Vitamin E dose less than 500 IU/hd/day): 0.5-0.6 μg AT/gm wet muscle/50 days
Compound: Vitamin E
Final Longissimus AT concentration ([2]; 300 IU/hd/day, 231-309 days fed): 3.8 μg/gm wet muscle
Final Longissimus AT concentration [2, 7]: 4.1 μg/gm wet muscle
Final Longissimus AT concentration ([2]; 1140 IU/hd/day, 67 days fed): 6.2 μg/gm wet muscle
Final Longissimus AT concentration ([2]; 1200 IU/hd/day, 38 days fed): 3.5 μg/gm wet muscle
Final Longissimus AT concentration [2, 8]: 6.8 μg/gm wet muscle
Final Longissimus AT concentration [2, 9]: 6.8 μg/gm wet muscle
Final Longissimus AT concentration [2, 10]: 7.6 μg/gm wet muscle
RCDM AT concentration plateau ([5]; 1,000 IU of Vitamin E/hd/day, slaughter at 25-day intervals): 9.3 μg/gm
Final AT concentration (in RCDM muscle) ([5]; 1000 IU/hd/day (McClure), 25-125 days fed): 9.3 μg/gm wet muscle
initial AT concentrations ([5]; controls already receiving 200 IU E/day): above 3.5
